From patent publication EP0508792A1, “Anti-tumor and anti-psoriatic agents” (SCHERING CORPORATION, priority 1991, dated 1992)

target: PKC; test: Mixed micellar protein kinase C (PKC) assay, in vitro inhibition of PKC; format: biochemical; conditions: partially purified rat brain PKC; histone III-S substrate; 23°C, 15 minutes; 2% DMSO
Experimental: The below listed Test Methods A and B were run in accordance with the procedures described in Bishop, W.R., Petrin, J., Wang, L., Ramesh, U., and Doll, R.J. (1990) Biochemical Pharmacology 40: No. 9, pp. 2129-2135 and Hannun et al, J. Biol. Chem. 260, 10039-10043, (1985), which are herein incorporated by reference.The following modifications were made in this procedure:
A. Protein Kinase C ("PKC") Protocol
Mixed micellular protein kinase C assays were conducted by the methods described in the two articles cited just above, (namely, Bishop et al, and Hannun et al), in a reaction mixture (0.25 mL total volume) containing: 20 mM Tris-HCl (pH 7.5); […] histone III-S; 10 mM MgCl2; 5 mM [g-32P]ATP (4 x 10^6 cpm/nmol); […] CaCl2; 32 mg/mL of phosphatidylserine; […] of 1-oleoyl-2-acetyl-glycerol and various concentrations of compounds of this invention added from a dimethyl-sulfoxide (DMSO) stock solution. The final concentration of DMSO in the reaction was 2% w/v. Reactions were started by addition of approximately […] of partially purified rat brain PKC and allowed to proceed at 23°C for 15 minutes. Reactions were terminated by collection of trichloroacetic acid-precipitated phosphorylated histone on GF/C filters using a Brandel Cell Harvester (Model No. M-24-R).

In order of rising IC50:
1. CNC(=O)[C@@H]1C[C@@H]2O[C@H]1n1c3ccccc3c3c4c(c5c6ccccc6n2c5c31)C(=O)NC4=O (relative stereo) [Example 65]  0.0005 µM
2. NC(=O)[C@@H]1C[C@@H]2O[C@H]1n1c3ccccc3c3c4c(c5c6ccccc6n2c5c31)C(=O)NC4=O (relative stereo) [Example 67]  0.0006 µM
3. O=C(O)CNC(=O)[C@@H]1C[C@@H]2O[C@H]1n1c3ccccc3c3c4c(c5c6ccccc6n2c5c31)C(=O)NC4=O (relative stereo) [Example 69]  0.0008 µM
4. CN(C)C(=O)[C@@H]1C[C@@H]2O[C@H]1n1c3ccccc3c3c4c(c5c6ccccc6n2c5c31)C(=O)NC4=O (relative stereo) [Example 68]  0.001 µM
5. CO[C@H]1C[C@@H]2O[C@H]1n1c3ccccc3c3c4c(c5c6ccccc6n2c5c31)C(=O)NC4=O (relative stereo) [Example 38]  0.0014 µM
6. CN(C)C[C@@H]1C[C@@H]2O[C@H]1n1c3ccccc3c3c4c(c5c6ccccc6n2c5c31)C(=O)NC4=O (relative stereo) [Example 49]  0.004 µM
7. CS(=O)(=O)OC[C@H]1C[C@@H]2O[C@H]1n1c3ccccc3c3c4c(c5c6ccccc6n2c5c31)C(=O)NC4=O (relative stereo) [Example 39]  0.005 µM
8. O=C1NC(=O)c2c1c1c3ccccc3n3c1c1c2c2ccccc2n1[C@@H]1O[C@H]3C[C@H]1Cn1ccnc1 (relative stereo) [Example 48]  0.007 µM
9. O=C1NC(=O)c2c1c1c3ccccc3n3c1c1c2c2ccccc2n1[C@@H]1O[C@H]3C[C@@H]1CO (relative stereo) [Example 35]  0.0075 µM
10. [N-]=[N+]=NC[C@H]1C[C@@H]2O[C@H]1n1c3ccccc3c3c4c(c5c6ccccc6n2c5c31)C(=O)NC4=O (relative stereo) [Example 41]  0.0075 µM
11. O=C1NC(=O)c2c1c1c3ccccc3n3c1c1c2c2ccccc2n1[C@@H]1O[C@H]3C[C@H]1CO (relative stereo) [Example 36]  0.01 µM
12. NC[C@@H]1C[C@@H]2O[C@H]1n1c3ccccc3c3c4c(c5c6ccccc6n2c5c31)C(=O)NC4=O (relative stereo) [Example 45]  0.013 µM
13. S=C1NC(=S)c2c1c1c3ccccc3n3c1c1c2c2ccccc2n1[C@H]1CC[C@@H]3O1 [Example 25]  0.013 µM
14. CS(=O)(=O)OC[C@@H]1C[C@@H]2O[C@H]1n1c3ccccc3c3c4c(c5c6ccccc6n2c5c31)C(=O)NC4=O (relative stereo) [Example 40]  0.015 µM
15. Cc1ccc2c(c1)c1c(Br)c(Br)c3c4cc(C)ccc4n4c3c1n2[C@@H]1CC[C@H]4O1 [Example 27]  0.018 µM
16. CC(C)(C)OC(=O)CNC(=O)[C@@H]1C[C@@H]2O[C@H]1n1c3ccccc3c3c4c(c5c6ccccc6n2c5c31)C(=O)NC4=O (relative stereo) [Example 64]  0.019 µM
17. O=C1NC(O)c2c1c1c3ccccc3n3c1c1c2c2ccccc2n1[C@H]1CC[C@@H]3O1 (stereo partly drawn) [Example 26]  0.019 µM
18. O=C1NC(=O)c2c1c1c3ccccc3n3c1c1c2c2ccccc2n1[C@@H]1O[C@H]3C[C@H]1C(=O)O (relative stereo) [Example 63]  0.02 µM
19. O=C1NC(=O)c2c1c1c3ccccc3n3c1c1c2c2ccccc2n1[C@@H]1O[C@H]3C[C@H]1C(=O)NCc1ccccc1 (relative stereo) [Example 66]  0.02 µM
20. Cc1ccc2c(c1)c1c3c(c4c5cc(C)ccc5n5c4c1n2[C@@H]1C[C@@H](CO)[C@H]5O1)C(=O)NC3=O (relative stereo) [Example 57]  0.023 µM
21. Cc1ccc2c(c1)c1c3c(c4c5cc(C)ccc5n5c4c1n2[C@@H]1C[C@H](CO)[C@H]5O1)C(=O)NC3=O (relative stereo) [Example 58]  0.023 µM
22. Cc1ccc2c(c1)c1c3c(c4c5cc(C)ccc5n5c4c1n2[C@@H]1CC[C@H]5O1)C(=N)NC3=O (relative stereo) [Example 29]  0.042 µM
23. Cc1ccc2c(c1)c1c3c(c4c5cc(C)ccc5n5c4c1n2[C@@H]1CC[C@H]5O1)C(=O)NC3=O [Example 30]  0.05 µM
24. Cc1ccc2c(c1)c1c(C#N)c(C#N)c3c4cc(C)ccc4n4c3c1n2[C@@H]1CC[C@H]4O1 [Example 28]  0.058 µM
25. NC(=O)[C@H]1C[C@@H]2O[C@H]1n1c3ccccc3c3c4c(c5c6ccccc6n2c5c31)C(=O)NC4=O (relative stereo) [Example 37]  0.115 µM
26. O=C(NC[C@@H]1C[C@@H]2O[C@H]1n1c3ccccc3c3c4c(c5c6ccccc6n2c5c31)C(=O)NC4=O)c1ccccc1 (relative stereo) [Example 46]  0.23 µM

tested on: Normal Human Keratinocytes (NHEK); test: 3H thymidine uptake in normal human keratinocytes (NHEK); format: cell-based; conditions: Homo sapiens, 20 h; dose response study, 3H thymidine uptake in NHEK; read-out: IC₅₀
Experimental: ^3H Thymidine Uptake in Normal Human Keratinocytes (NHEK): Effects of Compounds of the Invention
Second passage NHEK cells grown in MCDB 153 media with a 5% CO2 air mixture at 37° were used for experiments. Compounds of the invention which were tested were prepared at 5mM stock solutions in DMSO. Cells were grown to 60-80% confluency in 6 well trays. Compounds were added to give a concentration of 5x10⁻⁶ molar and cultures were simultaneously pulsed with 1 microCurie/mL ^3H thymidine for 20 hours. Cells were then harvested and tritium was counted using a liquid scintillation counter; results are the average of 8 wells per compound. In the control, when no compound is employed, there is 0% inhibition of thymidine uptake.
A dose response study of the compound from Example 35, using the just above described test was conducted. Concentrations of the compound from Example 35 ranging from 5x10⁻⁵ to 5x10⁻⁶ M in tenfold dilutions were conducted.

For `O=C1NC(=O)c2c1c1c3ccccc3n3c1c1c2c2ccccc2n1[C@@H]1O[C@H]3C[C@@H]1CO` (relative stereo) [Example 35], the IC50 was 1.72 µM.

same assay, conditions: compound at 5x10⁻⁶ molar; 3H thymidine pulse 20 hours; average of 8 wells

In order of rising “% Inhibition of Control” value:
1. O=C1NC(=O)c2c1c1c3ccccc3n3c1c1c2c2ccccc2n1[C@H]1CC[C@@H]3O1 [Example 22]  77.3%
2. O=C1NCc2c1c1c3ccccc3n3c1c1c2c2ccccc2n1C1CCC3O1 (racemic) [Example 23]  78.8%
3. O=C1NC(=O)c2c1c1c3ccccc3n3c1c1c2c2ccccc2n1[C@@H]1O[C@H]3C[C@@H]1CO (relative stereo) [Example 35]  99.2%
